Each structure is given as a SMILES string. The source made the active and inactive calls. The rule behind the calls is not given here.

For experiment [1], the target named is T1, Transient receptor potential cation channel subfamily V member 1 (Homo sapiens, UniProt Q8NER1). As to the kind of experiment: Inhibition of human TRPV1 overexpressed in BEAS-2B cells assessed as residual activity at 50 uM after 30 mins by Fluo-4 AM fluorescence assay. The experiment is classed as cell-based.
For experiment [2], the target named is T1, Transient receptor potential cation channel subfamily V member 1. As to the kind of experiment: Inhibition of human TRPV1 overexpressed in BEAS-2B cells assessed as residual activity at 250 uM after 30 mins by Fluo-4 AM fluorescence assay. Format: cell-based.
For experiment [3], the target named is T2, Prostaglandin G/H synthase 2 (Homo sapiens) (UniProt P35354).
T2 sequence (whole entry): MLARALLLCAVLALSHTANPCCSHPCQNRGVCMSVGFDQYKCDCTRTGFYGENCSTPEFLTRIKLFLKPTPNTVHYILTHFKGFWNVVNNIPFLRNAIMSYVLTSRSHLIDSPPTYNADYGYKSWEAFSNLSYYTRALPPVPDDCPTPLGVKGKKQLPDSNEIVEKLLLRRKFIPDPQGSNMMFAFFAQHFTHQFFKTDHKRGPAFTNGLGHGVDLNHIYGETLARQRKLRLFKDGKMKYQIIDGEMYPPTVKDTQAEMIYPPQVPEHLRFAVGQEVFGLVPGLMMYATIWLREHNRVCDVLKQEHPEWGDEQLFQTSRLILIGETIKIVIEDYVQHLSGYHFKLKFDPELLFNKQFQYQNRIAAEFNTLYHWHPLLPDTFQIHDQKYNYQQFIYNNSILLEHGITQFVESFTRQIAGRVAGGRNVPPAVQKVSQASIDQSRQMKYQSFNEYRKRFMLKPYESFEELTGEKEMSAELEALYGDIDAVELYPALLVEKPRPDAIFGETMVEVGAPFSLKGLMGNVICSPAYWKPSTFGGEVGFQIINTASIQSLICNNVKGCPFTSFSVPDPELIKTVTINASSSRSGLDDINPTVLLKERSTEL
Put plainly: Inhibition of human recombinant COX2 assessed as inhibition of ADHP to fluorescent resorufin conversion measured as residual activity at 10 uM by fluorescence assay.

The target of experiment [4] is T3, Fatty-acid amide hydrolase 1 (Homo sapiens) (UniProt O00519).
T3 sequence (whole entry): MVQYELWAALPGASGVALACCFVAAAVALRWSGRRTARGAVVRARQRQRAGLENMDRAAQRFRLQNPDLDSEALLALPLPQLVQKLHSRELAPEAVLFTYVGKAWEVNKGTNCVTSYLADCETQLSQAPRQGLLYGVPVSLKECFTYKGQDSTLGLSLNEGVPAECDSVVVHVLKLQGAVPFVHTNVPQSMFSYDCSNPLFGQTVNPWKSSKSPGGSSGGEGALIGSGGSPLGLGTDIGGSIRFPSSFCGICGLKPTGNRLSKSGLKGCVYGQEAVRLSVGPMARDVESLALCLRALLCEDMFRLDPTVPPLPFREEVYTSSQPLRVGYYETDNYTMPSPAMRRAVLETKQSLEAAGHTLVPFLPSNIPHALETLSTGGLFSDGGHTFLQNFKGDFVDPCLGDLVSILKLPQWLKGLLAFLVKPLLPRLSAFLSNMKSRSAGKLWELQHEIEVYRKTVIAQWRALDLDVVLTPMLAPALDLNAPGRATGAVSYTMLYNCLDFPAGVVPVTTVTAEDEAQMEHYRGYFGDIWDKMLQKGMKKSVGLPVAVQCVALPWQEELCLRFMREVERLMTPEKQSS
Put plainly: Inhibition of human recombinant FAAH using AMC arachidonoyl amide as substrate assessed as residual activity at 10 uM by fluorescence assay.

Experiment [5] has as its target T1, Transient receptor potential cation channel subfamily V member 1. Put plainly: Inhibition of human TRPV1 overexpressed in BEAS-2B cells assessed as calcium flux after 30 mins by Fluo-4 AM fluorescence assay. The experiment is classed as cell-based.
Experiment [6] deals with T4, Fatty-acid amide hydrolase 1 (Homo sapiens, UniProt O00519).
T4 sequence (O00519 whole entry): T3 sequence (whole entry)
As to the kind of experiment: Inhibition of human recombinant FAAH using AMC arachidonoyl amide as substrate by fluorescence assay.

Experiment [7] addresses T5, Prostaglandin G/H synthase 2 (Homo sapiens, UniProt P35354).
T5 sequence (P35354 whole entry): T2 sequence (whole entry)
Put plainly: Inhibition of human recombinant COX2 assessed as inhibition of ADHP to fluorescent resorufin conversion by fluorescence assay.

Experiment [8] concerns the target T3, Fatty-acid amide hydrolase 1 (Homo sapiens). Put plainly: Inhibition of human recombinant FAAH using AMC arachidonoyl amide as substrate assessed as residual activity at 50 uM by fluorescence assay.
The target in experiment [9] is T1, Transient receptor potential cation channel subfamily V member 1. As to the kind of experiment: Stimulation of human TRPV1 overexpressed in BEAS-2B cells at >10 uM after 30 mins by Fluo-4 AM fluorescence assay. Format: cell-based.
For experiment [10] the target is unchanged. Put plainly: Inhibition of human TRPV1 overexpressed in BEAS-2B cells at 10 uM after 30 mins by Fluo-4 AM fluorescence assay. The experiment is classed as cell-based.

T1 sequence (Q8NER1 whole entry): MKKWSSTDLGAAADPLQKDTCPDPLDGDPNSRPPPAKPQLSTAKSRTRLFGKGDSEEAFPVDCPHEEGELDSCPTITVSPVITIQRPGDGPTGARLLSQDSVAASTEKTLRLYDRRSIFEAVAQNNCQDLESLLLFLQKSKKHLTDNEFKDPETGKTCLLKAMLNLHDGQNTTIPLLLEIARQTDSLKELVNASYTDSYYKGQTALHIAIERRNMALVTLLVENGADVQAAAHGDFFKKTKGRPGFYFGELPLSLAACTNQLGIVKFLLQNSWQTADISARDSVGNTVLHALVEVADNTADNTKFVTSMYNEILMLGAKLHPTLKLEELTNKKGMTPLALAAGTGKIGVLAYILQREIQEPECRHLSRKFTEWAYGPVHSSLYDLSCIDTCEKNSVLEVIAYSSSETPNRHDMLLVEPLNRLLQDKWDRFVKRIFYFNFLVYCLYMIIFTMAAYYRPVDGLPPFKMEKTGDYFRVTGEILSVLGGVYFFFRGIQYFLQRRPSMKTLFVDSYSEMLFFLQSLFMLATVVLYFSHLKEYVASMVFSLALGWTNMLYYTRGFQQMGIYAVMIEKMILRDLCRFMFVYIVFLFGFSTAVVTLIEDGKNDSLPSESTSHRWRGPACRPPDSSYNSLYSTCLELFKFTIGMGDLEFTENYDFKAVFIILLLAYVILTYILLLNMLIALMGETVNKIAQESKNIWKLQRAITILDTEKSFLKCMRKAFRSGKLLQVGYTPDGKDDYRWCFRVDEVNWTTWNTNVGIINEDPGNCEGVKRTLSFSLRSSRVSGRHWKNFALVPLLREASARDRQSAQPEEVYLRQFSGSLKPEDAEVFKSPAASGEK

In the case of `COc1ccc2cc([C@H](C)C(=O)O)ccc2c1`, the Activity amounted to 107% in experiment [1] and 109% in experiment [2].

For the compound `CC(C(=O)O)c1cccc(C(=O)c2ccccc2)c1` (stereo unspecified), the values for the Activity in experiment [1] and in [2] were 103% and 108%, respectively.

As for `O=C(Cc1ccccc1Nc1c(Cl)cccc1Cl)NCCc1c[nH]c2ccc(O)cc12`, the figures for the Activity in experiment [3] and in experiment [4] were 43% and 98%, respectively. For the same compound, the IC50 in experiment [5] turned out to be 19 µM.

In the case of `CC(C)Cc1ccc(C(C)C(=O)NCCc2c[nH]c3ccc(O)cc23)cc1` (stereo unspecified), the IC50 was determined as 5 µM in [6], 10 µM in experiment [7] and 6 µM in experiment [5]. Also, the Activity was found to be 42% in experiment [3] and 75% in experiment [4].

For `COc1ccc2c(c1)c(CC(=O)NCCc1c[nH]c3ccc(O)cc13)c(C)n2C(=O)c1ccc(Cl)cc1`, the Activity in [3] came to 7%; in experiment [4] it was 94%. Further, the half-maximal inhibitory concentration (IC50) in experiment [5] stood at 48 µM.

As for `CC(C(=O)NCCc1c[nH]c2ccc(O)cc12)c1cccc(C(=O)c2ccccc2)c1` (stereo unspecified), the results for the Activity in experiment [3] and in experiment [4] were 51% and 88%, respectively. In addition, the IC50 in [5] was found to be 45 µM.

Take `COc1ccc2cc([C@H](C)C(=O)NCCc3c[nH]c4ccc(O)cc34)ccc2c1`: the Activity in experiment [3] stood at 48%; in experiment [8], 73%. In addition, the IC50 in [7] is 18 µM; in experiment [5] it was 13 µM.

As for `O=C(c1ccccc1)c1ccc2n1CCC2C(=O)O` (stereo unspecified), the Activity in experiment [1] turned out to be 96%; in experiment [2] it was 110%.

In the case of `CC(=O)Oc1ccccc1C(=O)NCCc1c[nH]c2ccc(O)cc12`, the Activity in experiment [3] was determined as 60%; in [4] it was 99%. Besides, in experiment [5], the IC50 is 203 µM.

For `O=C(NCCc1c[nH]c2ccc(O)cc12)c1ccccc1O`, the Activity amounted to 51% in experiment [3] and 101% in experiment [4]. For the same compound, the IC50 in [5] stood at 70 µM.

In the case of `O=C(O)c1ccccc1Nc1cccc(C(F)(F)F)c1`, the Activity in [1] came to 66%; in experiment [2], 36%.

For the compound `CC(C(=O)O)c1ccc(-c2ccccc2)c(F)c1` (stereo unspecified), the Activity in [1] turned out to be 103%; in experiment [2] it was 108%.

With `COc1ccc2c(c1)c(CC(=O)O)c(C)n2C(=O)c1ccc(Cl)cc1`, the Activity in experiment [1] worked out at 98%; in experiment [2] it was 82%.

Consider `CC(C(=O)O)c1cccc(Oc2ccccc2)c1` (stereo unspecified), for which the Activity in [1] turned out to be 104%; in experiment [2], 121%.

In the case of `O=C(NCCc1c[nH]c2ccc(O)cc12)c1ccccc1Nc1cccc(C(F)(F)F)c1`, the Activity in experiment [3] stood at 38%; in experiment [4], 107%. The outcome in [9] was Active. The same compound yielded an inhibition in experiment [10] of 40%. The IC50 in experiment [5] was 10 µM.

Turning to `O=C(c1ccccc1)c1ccc2n1CCC2C(=O)NCCc1c[nH]c2ccc(O)cc12` (stereo unspecified), the Activity came out at 43% in [3] and 98% in experiment [4]. The IC50 in experiment [5] stood at 70 µM.

For the compound `CCCCC/C=C\C/C=C\C/C=C\C/C=C\CCCC(=O)NCCc1c[nH]c2ccc(O)cc12`, the IC50 in experiment [6] worked out at 16 µM; in experiment [7], 5 µM; in experiment [5], 10 µM. The Activity worked out at 66% in [3] and 78% in experiment [4].

In the case of `O=C(O)Cc1ccccc1Nc1c(Cl)cccc1Cl`, the Activity in experiment [1] is 61%; in experiment [2], 49%.

Turning to `CC(C(=O)NCCc1c[nH]c2ccc(O)cc12)c1ccc(-c2ccccc2)c(F)c1` (stereo unspecified), the half-maximal inhibitory concentration (IC50) in experiment [6] is 15 µM; in experiment [7], 8 µM; in experiment [5] it was 9 µM. Moreover, the Activity was 38% in [3] and 85% in experiment [4].

On to `CC(C)Cc1ccc(C(C)C(=O)O)cc1` (stereo unspecified), for which the Activity in experiment [1] was 103%; in experiment [2] it was 112%.

`CC(C(=O)NCCc1c[nH]c2ccc(O)cc12)c1cccc(Oc2ccccc2)c1` (stereo unspecified): the values for the Activity in [3] and in experiment [8] were 49% and 105%, respectively. Besides, the IC50 is 7 µM in experiment [7] and 8 µM in [5].

On to `CC(=O)Oc1ccccc1C(=O)O`, for which the Activity in experiment [1] was determined as 84%; in [2] it was 91%.

As a reminder, the IC50 is the concentration that inhibits the measured activity by half. The inhibition is the relative decrease from the control value, in per cent. A higher inhibition goes with a response far below the control.

The record behind these values is ChEMBL document CHEMBL3351449, “Inhibition of FAAH, TRPV1, and COX2 by NSAID-serotonin conjugates” (Bioorg Med Chem Lett, 2014).
